The text below walks through data of US9770462B2, “Method of treating ovarian, tubal and peritoneal cancer” (NATIONAL CHENG KUNG UNIVERSITY, priority 2015, dated 2017).

Test [1] deals with cDDP^R cell lines (2008-cp, A172-cp and SR2) and cDDP^S cell lines (2008, A172 and SCLC). Nature of the test: Sensitization to platinum drugs in the absence or presence of copper chelator. The test is classed as cell-based, human. The conditions noted are these: copper chelator treated cDDP^R cells with enhanced hCtr1 expression. As to the method: Furthermore, ^64Cu uptake and platinum (Pt) uptake, and sensitization to cisplatin and carboplatin in three pairs of cDDP^R cell lines (2008-cp, A172-cp and SR2) and cDDP^S cell lines (2008, A172 and SCLC) in the absence or presence of copper chelator (5 μmol/L of TM, 100 μmol/L of trientine or 100 μmol/L of D-pen) were evaluated.

For the next test, the system named is ovarian cancer cells. Kind of test: Cisplatin cytotoxicity (IC50) in the presence or absence of copper histidine. The settings on record: copper ions 3000 μM, 24 hours. The test is classed as cell-based. As to the method:
The cytotoxicity of shControl cells (shControl), IMP3 knockdown cells (shIMP3-268, shIMP3-596) and Lin28B knockdown cells (shLin28B-860, shLin28B-508) in response to cisplatin was determined using the WST-1 (TaKaRa) assay. In brief, 3×10^4 ovarian cancer cells/well were grown in 96-well plates overnight and treated with cisplatin at various concentrations in the presence or absence of copper ions (3000 μM) (Copper Histidine) for 24 hours. After incubation, the […] was used to determine the IC50 of cisplatin. Dose-inhibition curves and the IC50 of cisplatin were calculated for the different cell types using commercial software (SigmaPlot V10.0, Systat Software, Inc., Richmond, Calif., USA). A copper histidine solution was prepared. In brief, copper(II) chloride (0.106 g; Sigma-Aldrich) and L-histidine (0.244 g; Sigma-Aldrich) were dissolved in 90 ml of sterile 0.9% sodium chloride, titrated to a pH of […] to 7.40, and then filtered through a 0.22-μm filter before use.

Consider `N.N.O=C([O-])C1(C(=O)[O-])CCC1.[Pt+2]` [carboplatin], for which the “sensitivity of cells to the platinum drug” value in test [1] is reported as “increased sensitivity”.
On the same count and under the same terms, the same measure for `N.N.[Cl][Pt][Cl]` [cisplatin]: “higher increases”.
As to `N[C@@H](Cc1c[nH]cn1)C(=O)O.[Cu]` [copper histidine], the “IC50 of cisplatin when combined with copper histidine” value in the test on ovarian cancer cells (IMP3- or Lin28B-knockdown cells, p<0.05) is “increased”; with ovarian cancer cells (shControl cells), “no significant (NS) effect”.
Regarding `O=C1[O][Pt]2([NH][C@@H]3CCCC[C@H]3[NH]2)[O]C1=O` [oxaliplatin], in test [1], the “sensitivity of cells to the platinum drug” value was “not”.
